The source of these data is patent US20240343733A1, “COMPOUNDS FOR TARGETING DEGRADATION OF IRAK4 PROTEINS” (BIOGEN MA INC., priority 2021, published 2024).

This assay has as its target T1, IRAK4 (Homo sapiens, UniProt Q9NWZ3).
T1 construct: 293Tcells expressing HiBiT-tagged IRAK4 were then added into 384-well plates
T1 sequence (Q9NWZ3 1-460): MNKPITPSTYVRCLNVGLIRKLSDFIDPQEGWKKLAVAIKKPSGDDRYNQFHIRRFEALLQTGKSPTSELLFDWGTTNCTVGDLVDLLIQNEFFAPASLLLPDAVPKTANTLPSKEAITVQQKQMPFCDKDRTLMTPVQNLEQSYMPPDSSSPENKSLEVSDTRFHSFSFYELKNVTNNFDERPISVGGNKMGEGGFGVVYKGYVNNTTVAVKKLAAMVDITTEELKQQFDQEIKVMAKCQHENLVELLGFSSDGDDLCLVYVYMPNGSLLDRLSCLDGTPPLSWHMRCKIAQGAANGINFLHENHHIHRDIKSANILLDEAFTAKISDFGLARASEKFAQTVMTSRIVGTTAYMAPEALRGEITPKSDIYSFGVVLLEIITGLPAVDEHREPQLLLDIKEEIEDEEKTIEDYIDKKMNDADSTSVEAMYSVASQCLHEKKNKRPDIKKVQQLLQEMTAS
Nature of the assay: IRAK4 Degradation Assay, HiBiT Method. It is filed as cell-based. As to conditions: 293T cells expressing HiBiT-tagged IRAK4, 6 hours. Here is the method:
Assay 1. IRAK4 Degradation Assay, HiBiT Method
Selected compounds were tested in an IRAK4 degradation assay using the HiBiT Method.
Phenol red-free Dulbecco's modified Eagle medium (DMEM) and fetal bovine serum (FBS) were purchased from Gibco (Grand Island, NY, USA). The Nano-Glo® HiBiT Lytic Assay System was purchased from Promega (Madison, WI, USA). Cell culture flasks and 384-well microplates were acquired from VWR (Radnor, PA, USA). The 293Tcell line was engineered by knocking-in a HiBiT fusion tag into the C-terminal of the IRAK4 gene in 293T cells (Synthego, Redwood City, CA, USA).
IRAK4 degradation was measured via the quantification of luminescent signals using the Nano-Glo® HiBiT Lytic Assay kit. Test compounds were added to 384-well plates in duplicate using an 11-point half-log dilution series, with the highest dose set at […]. 293Tcells expressing HiBiT-tagged IRAK4 were then added into 384-well plates at a cell density of 10,000 cells per well. The plates were kept at 37° C. with 5% CO2 for 6 hours. Cells that were treated only with DMSO served as the negative control; wells that contained only assay media served as the background control. After the 6-hour incubation, Nano-Glo® HiBiT Lytic Assay reagents were added to the cells. Luminescence was acquired using an EnVision™ Multilabel Reader (PerkinElmer, Santa Clara, CA, USA).
For orientation: With HiBiT, luminescence reflects the tagged protein that the partner subunit can reach.
`CC(C)Oc1cc2nn([C@H]3CC[C@H](CN4CCC(c5ccc6c(c5)n(C)c(=O)n6C5CCC(=O)NC5=O)CC4)CC3)cc2cc1C(=O)Nc1cccn([C@H]2C[C@H]2F)c1=O` (stereo partly drawn) [Example 137, 2-((1r,4S)-4-((4-(1-(2,6-dioxopiperidin-3-yl)-3-methyl-2-oxo-2,3-dihydro-1H-benzo[d]imidazol-5-yl)piperidin-1-yl)methyl)cyclohexyl)-N-(1-((1S,2R)-2-fluorocyclopropyl)-2-oxo-1,2-dihydropyridin-3-yl)-6-isopropoxy-2H-indazole-5-carboxamide]: the DC50 (usually the concentration at which degradation of the target reaches its halfway point) is < 10 nM.

As for `CC(C)Oc1cc2nc([C@H]3CC[C@H](CN(C)C4CCN(c5ccc(NC6CCC(=O)NC6=O)cc5)CC4)CC3)cn2cc1C(=O)Nc1cccc(C(F)(F)F)n1` (some centres unmarked) [Example 7, 2-[4-[[[1-[4-[(2,6-dioxo-3-piperidyl)amino]phenyl]-4-piperidyl]-methyl-amino]methyl]cyclohexyl]-7-isopropoxy-N-[6-(trifluoromethyl)-2-pyridyl]imidazo[1,2-a]pyridine-6-carboxamide], the 50% degradation concentration (DC50) was 100 to 500 nM.

The molecule `CC(C)Oc1cc2nc([C@H]3CC[C@H](CN(C)C4CCN(Cc5cccc(NC6CCC(=O)NC6=O)c5)CC4)CC3)cn2cc1C(=O)Nc1cccc(C(F)(F)F)n1` (some centres unmarked) [Example 14, 2-[4-[[[1-[[3-[(2,6-dioxo-3-piperidyl)amino]phenyl]methyl]-4-piperidyl]-methyl-amino]methyl]cyclohexyl]-7-isopropoxy-N-[6-(trifluoromethyl)-2-pyridyl]imidazo[1,2-a]pyridine-6-carboxamide] showed a DC50 of 500 to 1000 nM.

Take `CC(C)Oc1cc2nc([C@H]3CC[C@H](CN4CCC(c5ccc6c(c5)n(C)c(=O)n6C5CCC(=O)NC5=O)CC4)CC3)cn2cc1C(=O)Nc1cccn(C2CC2)c1=O` (some centres unmarked) [Example 167, N-(1-cyclopropyl-2-oxo-1,2-dihydropyridin-3-yl)-2-((1r,4r)-4-((4-(1-(2,6-dioxopiperidin-3-yl)-3-methyl-2-oxo-2,3-dihydro-1H-benzo[d]imidazol-5-yl)piperidin-1-yl)methyl)cyclohexyl)-7-isopropoxyimidazo[1,2-a]pyridine-6-carboxamide]: the DC50 was < 10 nM.

For the molecule `CC(C)Oc1cc2nc([C@H]3CC[C@H](CNCC4(O)CCN(c5ncc(C6CCC(=O)NC6=O)cc5F)CC4)CC3)cn2cc1C(=O)Nc1cnn2cccnc12` (some centres unmarked) [Example 176], the DC50 was < 10 nM.

`CC(C)Oc1cc2nc([C@H]3CC[C@H](CN4CCC(c5cccc(NC6CCC(=O)NC6=O)c5F)CC4)CC3)cn2cc1C(=O)Nc1cccc(C(F)F)n1` (some centres unmarked) [Example 22, N-[6-(difluoromethyl)-2-pyridyl]-2-[4-[[4-[3-[(2,6-dioxo-3-piperidyl)amino]-2-fluoro-phenyl]-1-piperidyl]methyl]cyclohexyl]-7-isopropoxy-imidazo[1,2-a]pyridine-6-carboxamide] came in with a DC50 of 10 to 100 nM.

In turn, `CC(C)Oc1cc2nc(C3CCN(CC(=O)N4CCC(c5ccc(NC6CCC(=O)NC6=O)cc5)CC4)CC3)cn2cc1C(=O)Nc1ccc(F)cc1F` (centres unmarked) [Example 94, N-(2,4-difluorophenyl)-2-[1-[2-[4-[4-[(2,6-dioxo-3-piperidyl)amino]phenyl]-1-piperidyl]-2-oxo-ethyl]-4-piperidyl]-7-isopropoxy-imidazo[1,2-a]pyridine-6-carboxamide] had a DC50 of 100 to 500 nM.

On to `CC(C)Oc1cc2nc([C@H]3CC[C@H](CN(C)C4CCN(Cc5ccc(NC6CCC(=O)NC6=O)cc5)CC4)CC3)cn2cc1C(=O)Nc1cccc(C(F)F)n1` (some centres unmarked) [Example 32, N-[6-(difluoromethyl)-2-pyridyl]-2-[4-[[[1-[[4-[(2,6-dioxo-3-piperidyl)amino]phenyl]methyl]-4-piperidyl]-methyl-amino]methyl]cyclohexyl]-7-isopropoxy-imidazo[1,2-a]pyridine-6-carboxamide], for which the DC50 lay in the range of 100 to 500 nM.

In the case of `CC(C)Oc1cc2nc(C3CCC(CN4CC[C@H](c5cc6c(cc5F)c(N5CCC(=O)NC5=O)nn6C)[C@H](O)C4)CC3)cn2cc1C(=O)Nc1cccn([C@H]2C[C@H]2F)c1=O` (stereo partly drawn) [Example 185, 2-((1S,4S)-4-(((3S,4R)-4-(3-(2,4-dioxotetrahydropyrimidin-1(2H)-yl)-5-fluoro-1-methyl-1H-indazol-6-yl)-3-hydroxypiperidin-1-yl)methyl)cyclohexyl)-N-(1-((1S,2R)-2-fluorocyclopropyl)-2-oxo-1,2-dihydropyridin-3-yl)-7-isopropoxyimidazo[1,2-a]pyridine-6-carboxamide], the DC50 is < 10 nM.

Regarding `CC(C)Oc1cc2nn([C@H]3CC[C@H](CN4CCCCC4Cc4ccc(OC5CCC(=O)NC5=O)cc4)CC3)cc2cc1C(=O)Nc1cccn([C@H]2C[C@H]2F)c1=O` (stereo partly drawn) [Example 139, 2-((1r,4S)-4-((2-(4-((2,6-dioxopiperidin-3-yl)oxy)benzyl)piperidin-1-yl)methyl)cyclohexyl)-N-(1-((1S,2R)-2-fluorocyclopropyl)-2-oxo-1,2-dihydropyridin-3-yl)-6-isopropoxy-2H-indazole-5-carboxamide], the DC50 was < 10 nM.

Molecule `CC(C)Oc1cc2nc([C@H]3CC[C@H](CN4CCC(c5ccc(OC6CCC(=O)NC6=O)cc5)CC4)CC3)cn2cc1C(=O)Nc1cccn(C2CC2)c1=O` (some centres unmarked) [Example 166, N-(1-cyclopropyl-2-oxo-1,2-dihydropyridin-3-yl)-2-((1r,4r)-4-((4-(4-((2,6-dioxopiperidin-3-yl)oxy)phenyl)piperidin-1-yl)methyl)cyclohexyl)-7-isopropoxyimidazo[1,2-a]pyridine-6-carboxamide] yielded a 50% degradation concentration (DC50) of 10 to 100 nM.

`CC(C)Oc1cc2nc(C3CCN(CC(F)=C4CCN(c5ccc(NC6CCC(=O)NC6=O)cc5)CC4)CC3)cn2cc1C(=O)Nc1cccc(C(F)F)n1` (centres unmarked) [Example 111, N-(6-(difluoromethyl)pyridin-2-yl)-2-(1-(2-(1-(4-((2,6-dioxopiperidin-3-yl)amino)phenyl)piperidin-4-ylidene)-2-fluoroethyl)piperidin-4-yl)-7-isopropoxyimidazo[1,2-a]pyridine-6-carboxamide] showed a DC50 of 10 to 100 nM.

The molecule `CC(C)Oc1cc2nc(C3CCN(C(=O)CC4(O)CCN(c5ccc6c(C7CCC(=O)NC7=O)nn(C)c6c5)CC4)CC3)cn2cc1C(=O)Nc1cccc(C(F)F)n1` (centres unmarked) [Example 79, N-[6-(difluoromethyl)-2-pyridyl]-2-[1-[2-[1-[3-(2,6-dioxo-3-piperidyl)-1-methyl-indazol-6-yl]-4-hydroxy-4-piperidyl]acetyl]-4-piperidyl]-7-isopropoxy-imidazo[1,2-a]pyridine-6-carboxamide] registered a DC50 of 10 to 100 nM.

With `CC(C)Oc1cc2nc(C3CCN(C(=O)CCCCNc4ccc(C5CCC(=O)NC5=O)cn4)CC3)cn2cc1C(=O)Nc1cccn([C@H]2C[C@H]2F)c1=O` (stereo partly drawn) [Example 165, 2-(1-(5-((5-(2,6-dioxopiperidin-3-yl)pyridin-2-yl)amino)pentanoyl)piperidin-4-yl)-N-(1-((1S,2R)-2-fluorocyclopropyl)-2-oxo-1,2-dihydropyridin-3-yl)-7-isopropoxyimidazo[1,2-a]pyridine-6-carboxamide], the DC50 lay within 10 to 100 nM.

As for `CC(C)Oc1cc2nc(C3CCN(CC(=O)N4CC5(C4)CN(c4ccc(C6CCC(=O)NC6=O)cc4)C5)CC3)cn2cc1C(=O)Nc1cccc(C(F)F)n1` (centres unmarked) [Example 110, N-[6-(difluoromethyl)-2-pyridyl]-2-[1-[2-[6-[4-(2,6-dioxo-3-piperidyl)phenyl]-2,6-diazaspiro[3.3]heptan-2-yl]-2-oxo-ethyl]-4-piperidyl]-7-isopropoxy-imidazo[1,2-a]pyridine-6-carboxamide], the DC50 was 10 to 100 nM.

Turning to `CC(C)Oc1cc2nc(C3CCN(C(=O)CN4CCC(c5ccc(NC6CCC(=O)NC6=O)cn5)CC4)CC3)cn2cc1C(=O)Nc1cccc(C(F)F)n1` (centres unmarked) [Example 84, N-[6-(difluoromethyl)-2-pyridyl]-2-[1-[2-[4-[5-[(2,6-dioxo-3-piperidyl)amino]-2-pyridyl]-1-piperidyl]acetyl]-4-piperidyl]-7-isopropoxy-imidazo[1,2-a]pyridine-6-carboxamide], the DC50 lay in the range of 10 to 100 nM.

Turning to `CC(C)Oc1cc2nc([C@H]3CC[C@H](CN4CC[C@H](c5ccc6c(N7CCC(=O)NC7=O)nn(C)c6c5)[C@H](O)C4)CC3)cn2cc1C(=O)Nc1cnn2cccnc12` [Example 177, 2-((1S,4r)-4-(((3S,4R)-4-(3-(2,4-dioxotetrahydropyrimidin-1(2H)-yl)-1-methyl-1H-indazol-6-yl)-3-hydroxypiperidin-1-yl)methyl)cyclohexyl)-7-isopropoxy-N-(pyrazolo[1,5-a]pyrimidin-3-yl)imidazo[1,2-a]pyridine-6-carboxamide], the DC50 was < 10 nM.
